# Source: ChEMBL document CHEMBL1159097, “Synthesis and structural and pharmacological properties of cyclopropane-based conformationally restricted analogs of 4-methylhistamine as histamine H3/H4 receptor ligands” (Bioorg Med Chem, 2010)
# Assays:
# [1] = target: T1, Histamine H3 receptor (Homo sapiens, UniProt Q9Y5N1); assay: Displacement of [3H]Nalpha-methylahistamine from human histamine H3 receptor
# [2] = target: Histamine H4 receptor (Homo sapiens, UniProt Q9H3N8); assay: Displacement of [3H]histamine from human histamine H4 receptor
# [3] = target: T1, Histamine H3 receptor; assay: Binding affinity to histamine H3 receptor
# T1 sequence (Q9Y5N1 whole entry): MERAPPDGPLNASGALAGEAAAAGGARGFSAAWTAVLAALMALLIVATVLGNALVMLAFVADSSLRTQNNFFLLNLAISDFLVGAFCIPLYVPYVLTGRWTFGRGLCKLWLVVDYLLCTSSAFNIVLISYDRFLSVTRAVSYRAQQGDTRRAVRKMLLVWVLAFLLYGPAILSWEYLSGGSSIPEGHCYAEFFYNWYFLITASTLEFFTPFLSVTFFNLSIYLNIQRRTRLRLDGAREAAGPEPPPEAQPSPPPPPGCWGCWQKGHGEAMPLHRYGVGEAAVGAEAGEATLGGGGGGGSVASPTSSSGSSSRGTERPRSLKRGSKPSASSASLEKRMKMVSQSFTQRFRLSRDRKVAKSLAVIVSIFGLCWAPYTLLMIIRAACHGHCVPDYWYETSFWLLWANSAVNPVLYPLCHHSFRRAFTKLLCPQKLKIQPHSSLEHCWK
Ki [1],Ki [2],SMILES,Ki [3]
38.7 nM,148 nM,Cc1nc[nH]c1[C@@H]1C[C@H]1CCNCc1ccc(Cl)cc1,–
–,–,NCC[C@@H]1C[C@@H]1c1cnc[nH]1,1.3 nM
> 1000 nM,> 1000 nM,Cc1[nH]cnc1[C@@H]1C[C@H]1CNCc1ccc(Cl)cc1,–
